This assay concerns the target Genome polyprotein (Hepatitis C virus genotype 1b (isolate BK) (HCV), UniProt P26663). Put plainly: Inhibition Assay: To measure inhibition of the enzymatic activity of the HCV NS5B RNA-dependent RNA polymerase by the nucleoside triphosphate compounds of the present invention, a radiolabeled nucleotide incorporation assay was used. This assay is a modified version of the assay described in International Publication No. WO2002/057287. Briefly, 50 uL reactions containing 20 mM HEPES (pH 7.3); 7.5 mM DTT; 20 units/ml RNasIN; 1 uM each of ATP, GTP, UTP and CTP; 20 uCi/mL [33P]-CTP; 10 mM MgCl; 60 mM NaCl; 100 ug/ml BSA; 0.021 uM DCoH heteropolymer RNA template; and 5 nM NS5B (1b-BKΔ55) enzyme were incubated at room temperature for 1 hour. The assay was then terminated by the addition of 500 mM EDTA (50 uL). The reaction mixture was transferred to a Millipore DE81 filter plate and the incorporation of labeled CTP is determined using Packard TopCount. Compound IC50 values can then be calculated from experiments with 10 serial 3-fold dilutions of the inhibitor in duplicate.

Genome polyprotein, sequence (P26663 2420-3010 limits assumed): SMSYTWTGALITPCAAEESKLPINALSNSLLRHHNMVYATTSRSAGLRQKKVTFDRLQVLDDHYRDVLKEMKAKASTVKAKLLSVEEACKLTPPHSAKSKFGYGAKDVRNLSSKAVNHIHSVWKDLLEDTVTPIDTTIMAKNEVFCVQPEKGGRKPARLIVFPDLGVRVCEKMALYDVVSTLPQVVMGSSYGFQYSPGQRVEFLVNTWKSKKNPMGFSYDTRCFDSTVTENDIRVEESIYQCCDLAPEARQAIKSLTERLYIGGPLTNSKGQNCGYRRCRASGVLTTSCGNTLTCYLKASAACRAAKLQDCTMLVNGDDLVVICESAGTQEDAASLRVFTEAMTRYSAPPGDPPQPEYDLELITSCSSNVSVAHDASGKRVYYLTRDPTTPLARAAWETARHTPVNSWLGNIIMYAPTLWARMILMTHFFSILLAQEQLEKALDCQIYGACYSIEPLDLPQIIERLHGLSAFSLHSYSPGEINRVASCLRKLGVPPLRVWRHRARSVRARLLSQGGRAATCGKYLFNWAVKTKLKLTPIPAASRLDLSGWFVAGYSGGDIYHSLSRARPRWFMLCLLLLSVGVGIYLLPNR

Consider `C[C@@]1(C#N)[C@@H](c2cnc3c(N)ncnn23)O[C@@H](COP(=O)(O)OP(=O)(O)OP(=O)(O)O)[C@@H]1O`, for which the IC50 was 50 nM.

Turning to `CC1(C#N)[C@@H](O)[C@H](COP(=O)(O)OP(=O)(O)OP(=O)(O)O)O[C@]1(C#N)c1cnc2c(=O)[nH]cnn12` (some centres not stated), the IC50 was greater than 200000 nM.

In the case of `CO[C@]1(c2cnc3c(N)ncnn23)O[C@@H](COP(=O)(O)OP(=O)(O)OP(=O)(O)O)[C@H](O)C1(C)C#N` (some centres not stated), the IC50 was 3800 nM.

On to `C[C@]1(C#N)[C@H](O)[C@H](COP(=O)(O)OP(=O)(O)OP(=O)(O)O)O[C@]1(C#N)c1ccc2c(N)ncnn12`, for which the IC50 was 1200 nM.

Consider `CO[C@]1(c2ccc3c(N)ncnn23)O[C@@H](COP(=O)(O)OP(=O)(O)OP(=O)(O)O)[C@H](O)[C@]1(C)C#N`, for which the IC50 was 87 nM.

For the compound `C[C@@]1(C#N)[C@H](O)[C@@H](COP(=O)(O)OP(=O)(O)OP(=O)(O)O)O[C@H]1c1ccc2c(N)ncnn12`, the IC50 was 3 nM.

Take `CC1(C#N)[C@H](O)[C@@H](COP(=O)(O)OP(=O)(O)OP(=O)(O)O)O[C@@]1(C#N)c1cnc2c(N)ncnn12` (some centres not stated): the IC50 is 87000 nM.

Broadly, the IC50 is the concentration that gives 50% inhibition.

(Values after ChEMBL document CHEMBL3886494, “2′-cyano substituted nucleoside derivatives and methods of use thereof for the treatment of viral diseases” (2016).)
